Reference: patent US20040186052A1, “Cytomodulating peptides and methods for treating neurological disorders” (priority 2002, published 2004)

Key:
[1] = rheumatoid arthritis patients; cited from earlier work
[2] = test system: ChAT neurons of the nucleus basalis; conditions: following insult with ibotenic acid; cited from earlier work
[3] = test system: dopaminergic neurons in the substantia nigra; conditions: MPTP model; cited from earlier work
[4] = test system: hair cell and cochlear neuron; conditions: associated with trauma; cited from earlier work
[5] = test system: relapsing-remitting form of MS; conditions: patients with relapsing-remitting MS; cited from earlier work
[6] = test system: experimental autoimmune encephalomyelitis (EAE); assay: Acute EAE in Lewis rats, daily clinical scoring; format: in vivo; conditions: intracerebroventricular administration (Table I, FIG. 7)
Body weight in EAE rats = format: in vivo, Lewis rats; conditions: 50, 15, or 5 mg by icv injection ten days after immunization; % body weight vs starting point
TNFα mRNA = assay: Cytokine mRNA in brain of EAE rats by real-time RT-PCR; format: in vivo, Lewis rats; conditions: brain RNA thirteen days after immunization, RDP58- vs Mannitol-treated, n=9, P<0.05
Method: Animals were sacrificed for molecular analysis at post onset day 5. Brains and spinal cords were removed and frozen in liquid nitrogen, then stored at −80° C. until ready for use. The tissues were subsequently homogenized in 700 μl of a guanidinium isothiocyanate solution containing 49 μl β-mercaptoethanol using an Ultraturrax tissue homogenizer (Jahnke and Kunkel, Staufen i. Breisgau, Germany). Total RNA was extracted by using the Absolutely RNA™ RT-PCR Miniprep Kit (Stratagene, La Jolla, USA) and its quality and quantity was determined with the Agilent 2100 Bioanalyzer System (Agilent Technologies, Palo Alto, USA). […]
To measure cytokine mRNA levels, the expression of each gene transcript was analyzed by real-time PCR using the ABI PRISM 7700 Sequence Detection System (TaqMan™, Perkin-Elmer Biosystems, Weiterstadt, Germany). […]
The PCR reaction was performed in a final volume of 25 μl containing 1 μl cDNA, 12.5 μl Master Mix (TaqMan™ Universal PCR Master Mix, Perkin Elmer, Applied Biosystems, Weiterstadt, Germany), 1 μl fluorogenic hybridization probe, […], and 5.5 μl distilled water. […] The mean Ct values for beta-actin and the cytokines were calculated from duplicate reactions. […]

NGF-dependent neurons = assay: Apoptosis of NGF-dependent neurons after NGF deprivation (TUNEL); format: cell-based; conditions: media lacking NGF and containing anti-NGF antibody
Method: NGF-dependent neurons are maintained in vitro in media containing NGF. The cells are washed and the media containing NGF is replaced with media lacking NGF and containing anti-NGF antibody. One sample is incubated in the presence of RDP-58, the other in the absence of RDP-58. Apoptosis is measured in the two samples, for example, by TUNEL labeling. RDP-58 inhibits neuronal apoptosis in NGF-dependent neurons induced by NGF deprivation.

MS = conditions: in vivo; cited from earlier work
[7] = test system: neuronal subtypes deprived of trophic support; conditions: cited from earlier work
retinal ganglion cells = conditions: following axotomy of the optic nerve; cited from earlier work
primary neurons = conditions: cited from earlier work
[8] = in vivo; cited from earlier work
Parkinson's disease = conditions: direct infusion into the putamen; cited from earlier work

Infliximab: anti-TNF monoclonal antibody
demyelinating disease symptoms [1]: correlated with incidences of demyelinating disease symptoms in some patients

CCSCc1ccc2c(c1)c1c3c(c4c5cc(CSCC)ccc5n5c4c1n2[C@H]1C[C@](O)(C(=O)OC)[C@]5(C)O1)CNC3=O [CEP-1347]
functional deficits [2]: reduces | survival of ChAT neurons of the nucleus basalis [2]: promotes | survival of dopaminergic neurons in the substantia nigra [3]: promotes | functional deficits [4]: reduce | hair cell and cochlear neuron death [4]: prevent

glatiramer acetate
disease episodes [5]: reductions

Arg-nL-nL-nL-Arg-nL-nL-nL-Gly-Tyr [RDP58]
disease index [6]: reducing | incidence [6]: reducing | mean clinical scores [6]: reducing | severity [6]: reducing | change in body weight associated with EAE induction (Body weight in EAE rats): reduces | TNFα mRNA level in brain (TNFα mRNA): significantly reduced | neuronal apoptosis induced by NGF deprivation (NGF-dependent neurons): inhibits

Cc1ccc(=O)n(-c2ccccc2)c1 [Pirfenidone]
progression of MS (MS): slow | symptoms of MS (MS): reduce

Oc1ccc(-c2nc(-c3ccncc3)c(-c3ccc(F)cc3)[nH]2)cc1 [SB202190]
survival of neuronal subtypes [7]: promote survival

C[S+]([O-])c1ccc(-c2nc(-c3ccncc3)c(-c3ccc(F)cc3)[nH]2)cc1 (stereo not shown) [SB203580]
survival of neuronal subtypes [7]: promote survival | retinal ganglion cell death (retinal ganglion cells): reduced | NO toxicity (primary neurons): inhibits

CN(C)c1ccc(O)c2c1C[C@H]1C[C@H]3[C@H](N(C)C)C(O)=C(C(N)=O)C(=O)[C@@]3(O)C(O)=C1C2=O [minocycline]
penetration of the blood-brain-barrier [8]: limited

B1: GDNF: glial cell line-derived neurotrophic factor (protein, UniProt P39905 78-211, looked up)
Glial cell line-derived …: SPDKQMAVLPRRERNRQAAAANPENSRGKGRRGQRGKNRGCVLTAIHLNVTDLGLGYETKEELIFRYCSGSCDAAETTYDKILKNLSRNRRLVSDKVGQACCRPIAFDDDLSFLDDNLVYHILRKHSAKRCGCI
patients' performance (Parkinson's disease): improve
